“And” between values parts separate entries of the source, which are not always exact repeats. Equal entries are not always repeated.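 96-well plates; 48 h exposure; 5 concentrations. Endpoints by linear interpolation between flanking doses. Not reached: highest tested concentration assigned. The concentration for 50% growth inhibition is given as GI50. At the TGI there is no net growth.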

Test systems include HS 578T breast; LXFL 529 NSCLC; OVCAR-4 ovarian; SK-MEL-5 melanoma; SNB-78 CNS; SR leukemia; SW-620 colon; UACC-257 melanoma; EKVX NSCLC; SF-539 CNS.
Experiment in all cases: NCI tumour cell line growth inhibition, 48 h

With `O=C1N[C@H]2[C@H](O)[C@H](O)[C@@H](O)[C@H](O)[C@@H]2c2cc3c(c(O)c21)OCO3`, the GI50 with HS 578T breast is 21 nM and 40.3 nM; in the assay with LXFL 529 NSCLC, 248 nM; with OVCAR-4 ovarian, 189 nM and 373 nM; with SK-MEL-5 melanoma, 127 nM; with SNB-78 CNS, 248 nM and 2040 nM; with SR leukemia, 24.8 nM. Besides, the GI50 with SW-620 colon was 239 nM and 250 nM; with UACC-257 melanoma, 314 nM and 339 nM. Also, the TGI with HS 578T breast was 94.1 nM and 97.8 nM; with LXFL 529 NSCLC, 4.13 µM; in the assay with SR leukemia, 0.511 µM and 3.31 µM; in the assay with UACC-257 melanoma it was 2.4 µM and 0.334 µM.
On to `CCN(CC)CCC(=O)/C=C/c1ccc(C)cc1`, for which the TGI is 32.4 µM in the assay on EKVX NSCLC; 20.6 µM with LXFL 529 NSCLC; 32.7 µM with OVCAR-4 ovarian; 19.1 µM in the assay with SF-539 CNS; 30.2 µM in the assay with SK-MEL-5 melanoma; 79.3 µM in the assay with SNB-78 CNS. For the same molecule, the values for the TGI in the assay on SR leukemia, with SW-620 colon and with UACC-257 melanoma were 33.3 µM, 14.9 µM and 30.6 µM, respectively.
For the molecule `COc1cc2c(cc1OC)[C@@H]([C@H](O)c1ccccc1)NCC2`, the TGI in the assay on EKVX NSCLC, with LXFL 529 NSCLC, with OVCAR-4 ovarian, with SF-539 CNS, with SK-MEL-5 melanoma and in the assay on SNB-78 CNS was over 100 µM each time. Besides, the TGI in the assay on SR leukemia, in the assay with SW-620 colon and in the assay with UACC-257 melanoma was over 100 µM throughout.
Regarding `C/C=C1\CCC2c3[nH]c4ccccc4c3CCN2C1` (stereo not given), the TGI in the assay on EKVX NSCLC, in the assay on LXFL 529 NSCLC, in the assay on OVCAR-4 ovarian, with SF-539 CNS, in the assay on SK-MEL-5 melanoma and with SNB-78 CNS was over 100 µM each time. In addition, the TGI in the assay on SR leukemia and with SW-620 colon was over 100 µM in each case.
Turning to `CN1C(=O)C(=CN(C)c2ccccc2)C(=O)N(C)C1=O`, the TGI in the assay on EKVX NSCLC, in the assay on LXFL 529 NSCLC, in the assay with OVCAR-4 ovarian, in the assay with SF-539 CNS, with SK-MEL-5 melanoma and with SNB-78 CNS was over 100 µM in each case. In addition, the TGI in the assay on SR leukemia, in the assay on SW-620 colon and in the assay on UACC-257 melanoma was over 100 µM throughout.
Turning to `O=C(CC1C(=O)Nc2ccccc2S1(=O)=O)Nc1cccc(Cl)c1` (stereo not given), the TGI with EKVX NSCLC is 42.2 µM; with LXFL 529 NSCLC, 38.3 µM; with OVCAR-4 ovarian, 36.6 µM; in the assay with SF-539 CNS it was 22.8 µM; in the assay with SK-MEL-5 melanoma it was 35.8 µM; in the assay on SNB-78 CNS, over 100 µM. The TGI is 40.7 µM with SR leukemia, 31.6 µM with SW-620 colon and 50 µM in the assay with UACC-257 melanoma.
Take `CC12CC(Sc3ccccc3N1)c1ccccc1O2` (stereo not given): the TGI with EKVX NSCLC is 33.4 µM; in the assay on LXFL 529 NSCLC it was 28.4 µM; in the assay on OVCAR-4 ovarian it was 31.2 µM; in the assay on SF-539 CNS, 32.5 µM; in the assay on SK-MEL-5 melanoma it was 28 µM; with SNB-78 CNS, 42.6 µM. Further, the values for the TGI with SR leukemia, in the assay on SW-620 colon and in the assay on UACC-257 melanoma were 58 µM, 31.8 µM and 27.8 µM, respectively.
For `Cc1ccc(S(=O)(=O)SCc2ccccc2)cc1`, the TGI amounted to 97.2 µM in the assay with EKVX NSCLC; 47.4 µM with LXFL 529 NSCLC; 31.4 µM with OVCAR-4 ovarian; 45.7 µM in the assay with SF-539 CNS; 54.5 µM in the assay on SK-MEL-5 melanoma; 30 µM in the assay on SNB-78 CNS. The values for the TGI with SR leukemia, in the assay with SW-620 colon and in the assay on UACC-257 melanoma were 62.7 µM, 14.7 µM and over 94.2 µM, respectively.
Take `Cc1cc(NS(=O)(=O)c2ccc(Nc3c4ccccc4nc4c(C(=O)Nc5ccc(S(=O)(=O)N=C(N)N)cc5)ccc(Cl)c34)cc2)no1`: the TGI is over 100 µM in the assay with EKVX NSCLC; over 100 µM with LXFL 529 NSCLC; 85.6 µM with OVCAR-4 ovarian; 41.7 µM in the assay on SF-539 CNS; over 100 µM with SK-MEL-5 melanoma; 97.7 µM in the assay on SNB-78 CNS. Also, the TGI is 61 µM in the assay on SR leukemia and over 100 µM in the assay on UACC-257 melanoma.
On to `O=C1c2c(c3c4ccccc4[nH]c3c3[nH]c4ccccc4c23)C(=O)N1Cc1ccccc1`, for which the TGI with EKVX NSCLC was 23.7 µM; in the assay with LXFL 529 NSCLC, 11.4 µM; in the assay with OVCAR-4 ovarian, 10.5 µM; in the assay with SF-539 CNS it was 6.26 µM; in the assay with SK-MEL-5 melanoma, 3.56 µM; in the assay with SNB-78 CNS, 9.63 µM. Moreover, the TGI in the assay with SW-620 colon was 10.9 µM; in the assay with UACC-257 melanoma, 13.3 µM.

The values are drawn from PubChem BioAssay (NCI).
